# Assay results from paper PMC7073886, “Structure–Bioactivity Relationships of Lapatinib Derived Analogs against Schistosoma mansoni” (ACS Medicinal Chemistry Letters, 2020).
# “Also recorded” adds a separate entry of the source.
# Tests used:
# [1] = Rat hepatocyte Clint; type: in vitro ADME; conditions: rat hepatocytes, intrinsic clearance; read-out: RH CLint
# [2] = Log D7.4 shake-flask octanol-water; type: physicochemical; conditions: pH 7.4
# Experimental: Log D7.4. Shake-flask octanol-water distribution coefficient was determined at pH 7.4 (Log D7.4). The aqueous solution used is 10 mM sodium phosphate pH 7.4 buffer. The method has been validated for Log D7.4 ranging from -2 to 5.0.
# Human Plasma Protein Binding (PPB). PPB was determined using equilibrium dialysis (RED device) to separate free from bound compound. The amount of compound in plasma (10 µM initial concentration) and in dialysis buffer (pH 7.4 phosphate buffer) was measured by LC-MS/MS after equilibration at 37 °C in a dialysis chamber. The fraction unbound (fu) is reported.
# Human Liver Microsomal Clint. In vitro intrinsic clearance was determined from human liver microsomes using a standard approach.11 Following incubation and preparation, the samples were analyzed using […]
# Rat Hepatocyte Clint. In vitro intrinsic clearance was determined from rat hepatocytes using a standard approach.11 Following incubation and preparation, the samples were analyzed using LC/MS/MS. Refined […]
# Calculated LogP and LogD values. Both LogP and LogD predictions are based on a modified version of the method12 where the predicted partition coefficients are composed of the molecules’ atomic increments.
# General Chemistry. All starting materials were commercially obtained and were used without further purification, unless specified. Reaction solvents were purified by passage through alumina columns on a purification system manufactured by Innovative Technology (Newburyport, MA). NMR spectra were obtained on Varian NMR systems, operating at 400 or 500 MHz for 1 H acquisitions. LCMS analysis was performed using a Waters AllianceHT e2795 reverse phase HPLC (Waters SunFire C18 4.6 × 50 mm, 3.5 μm column), with a Waters 2996 photodiode array detector scanning from 210 nm to 600 nm, and Waters Micromass ZQ detector (electrospray ionization). Where required, final compounds were purified by preparative reverse phase HPLC (columns Waters Symmetry RP8 30 × 50 mm, 5 μm column, or OBD RP18 30 × 50 mm, 5 μm), with a single wavelength UV−visible detector and Waters Micromass ZQ (electrospray ionization).
# [3] = Human plasma protein binding (equilibrium dialysis); type: in vitro ADME; conditions: pH 7.4, 10 µM, 37 °C, read-out: human PPB (plasma protein binding) (converted)
# [4] = tested on: adult S. mansoni; experiment: Phenotypic screen of adult S. mansoni worms, severity scores and descriptors; type: cell-based, Schistosoma mansoni; conditions: for Descriptors (10 µM) 1 h / Severity Scores (10 μM) 1 h / Severity Scores (10 μM) 5 h / Severity Scores (10 μM) 24 h / Severity Scores (10 μM) 48 h / Descriptors (10 µM) 24 h / Descriptors (10 µM) 5 h / Descriptors (10 µM) 48 h: adult S. mansoni; for Descriptors (10 µM) 1 h / Descriptors (10 µM) 24 h / Descriptors (10 µM) 5 h / Descriptors (10 µM) 48 h: phenotypic descriptors; for Severity Scores (10 μM) 1 h / Severity Scores (10 μM) 5 h / Severity Scores (10 μM) 24 h / Severity Scores (10 μM) 48 h: scale 0 (no activity) to 4 (maximal activity); for bioactivity against adult S. mansoni: adult schistosomes; for Severity Scores (10 μM) 1 h / Severity Scores (10 μM) 5 h / Severity Scores (10 μM) 24 h / Severity Scores (10 μM) 48 h / bioactivity against adult S. mansoni: 10 μM
# Description: Because the schistosome parasite can present multiple and dynamic phenotypic responses to chemical insult,[16] we employ a constrained nomenclature of descriptors to describe the changes in the parasite as a function of time and concentration (e.g., motility, density, and shape; and in the case of the adult parasite, an inability to adhere to the bottom of the assay dish). These descriptors are converted into severity scores on a scale of 0 (green)–4 (severest/red) that allow for partially quantitative comparisons of compound effects.[1]−[19] […] The descriptors themselves and their respective scores are detailed in the Supporting Information, Table S1. Severity score data are presented in the results (with the corresponding descriptors detailed in the Supporting Information, Tables S2–S8), and eight new analogs developed and synthesized in support of this effort are described. Finally, absorption, distribution, metabolism and excretion (ADME) data of all compounds presented in this work are reported in the Supporting Information, Table S15.
# Table S1. Descriptors and associated severity scores used for S. mansoni adults.
# R (rounded or shape altered 1
# On sides (adults unable to 1
# Shrunk (adults are shorter 1
# surface (tegument) of adults)
# dfailed to create analytical method
# Maintenance of the Schistosoma mansoni life cycle (NMRI isolate), the preparation of adult worms (≥ 42-
# days-old), and their co-incubation with test compounds were as described.7-9 Phenotypic responses were
# visually recorded using a constrained nomenclature and converted to severity scores on a scale from zero
# (no activity) to 4 (maximal activity).8, 9 Use of hamsters for maintaining the S. mansoni life-cycle was
# approved by the Institutional Animal Care and Use Committee of the University of California San Diego.
# The human myelomonocytic cell line THP -1 was grown at 37 °C and 5% CO2 in RPMI-1640 supplemented
# with 10% iFBS, 2 mM glutamate, 100 U/mL penicillin and […] streptomycin.
# Drug toxicity to HepG2 cells .10 HepG2 cells line were obtained from the American Type Culture
# Collection and cultured in Minimal Essential Medium (MEM) supplemented with 0.19% sodium
# bicarbonate, 10% Fetal Bovine Serum, 2 mM L -glutamine, 0.1 mM MEM non-essential amino, 0.009
# mg/mL insulin, 1.76 mg/mL bovine serum albumin. The viability of the cells was measured using the MTT
# (thiazolyl blue reduction) method. Briefly, ninety -six-well plates were seeded with 2.5 × 10^4 cells/well in
# 170 ml of culture medium and incubated overnight in 5% CO 2 at 37 °C. Cells were exposed to different
# experimental compounds in DMSO. After 48 hours incubation, the viability of the cells was assessed using
# MTT (thiazolyl blue reduction) as a dose response assay (11 two -fold serial dilutions) to obtain a calculated
# IC50 determination. 4-Azaindolo[2,1-b]quinazoline-6,12-dione is used as a toxicity positive control and
# each assay plate includes the following 3 additional controls: a) background control: no cells and no drug
# was added, b) target control: cells added but no drugs, and c) DMSO control: same as the target control
# except the culture media contains 0.6% DMSO. Absorbance was determined in all wells using a Perkin
# Elmer, Ensight plate reader. The fifty percent inhibitory concentrations (IC50’s) were determined using
# GraphPad Prism nonlinear regr ession (sigmoidal dose -response, variable slope) equation .
# ADME Experiment Protocols
# Aqueous pH 7.4 Solubility. Compounds were dried down from 10 mM DMSO solutions using centrifugal
# evaporation technique. Phosphate buffer (0.1 M pH 7.4) was added and StirStix were inserted in the glass
# vials, with shaking then performed at a constant temperature of 25 °C for 20 -24 h. This step was followed
# by double centrifugation with a tip wash in between, to ensure that no residues of the dried compounds
# interfere. The solutions were diluted before analysis and quantification using LC/MS/MS was performed.
# [5] = Aqueous pH 7.4 solubility; type: physicochemical; conditions: for solubility: aqueous buffer, thermodynamic from solid, phosphate buffer pH 7.4, 25 °C, 20-24 h, read-out: aq sol (aqueous solubility)
# [6] = Human liver microsomal Clint; type: in vitro ADME; conditions: human liver microsomes, intrinsic clearance; read-out: HLM Clint
hepatocyte CLint [1],logD [2],fraction unbound [3],solubility [5],microsomal CLint [6],decrease in aqueous solubility compared with 3 ([5]; relative to 3),SMILES,Descriptors (10 µM) 1 h [4],Severity Scores (10 μM) 1 h [4],Severity Scores (10 μM) 5 h [4],Severity Scores (10 μM) 24 h [4],Severity Scores (10 μM) 48 h [4],Descriptors (10 µM) 24 h [4],bioactivity against adult S. mansoni [4],Descriptors (10 µM) 5 h [4],Descriptors (10 µM) 48 h [4]
32 µL/min/1e6 cells,2.6,0.16,,,,CCN1CCCN(c2ncc(-c3cc4nccc(Nc5cnccn5)c4cc3C)cn2)CC1 [8c],none,0,4,4,4,,,,
24 µL/min/1e6 cells,5.1,,0.1 µM,57 µL/min/mg,,c1cc(-c2ccc3c(c2)ncc2c4ccccc4[nH]c32)cc(N2CCOCC2)c1 [6a],none,0,1,0,1,none,minimal bioactivity after 5 h,,
< 1 µL/min/1e6 cells,0.1,,,< 3 µL/min/mg,,O=C(O)C1CCCN1c1ncc(-c2ccc3c(Nc4cnccn4)ccnc3c2)cn1 (stereo not drawn) [3c],none,0,0,0,0,none,no bioactivity,none,none
32 µL/min/1e6 cells,3.3,,,> 300 µL/min/mg,,CCCN1CCCN(c2ncc(-c3ccc4c(Nc5cnccn5)ccnc4c3)cn2)CC1 [4f],none,0,0,0,0,none,,none,none
9 µL/min/1e6 cells,2.7,,6 µM,120 µL/min/mg,7 fold,COc1ccc(Nc2ccnc3cc(-c4cnc(N5CCCN(C)CC5)nc4)ccc23)cc1Cl [5d],,1,3,4,4,,severe phenotypic responses,,
21 µL/min/1e6 cells,,0.12,,,,CCN1CCCN(c2ncc(-c3ccc4c(Nc5cnccn5)ccnc4c3C)cn2)CC1 [9c],none,0,0,0,0,none,no bioactivity,none,none
19 µL/min/1e6 cells,,,35 µM,110 µL/min/mg,,CN1CCCN(c2ncc(-c3ccc4c(c3)ncc3c5ccccc5[nH]c43)cn2)CC1 [6b],none,0,1,1,4,,minimal bioactivity after 5 h; also recorded: potent activity after 48 h,,
32 µL/min/1e6 cells,4.7,,,> 300 µL/min/mg,,CC(C)(C)OC(=O)N1CCN(c2ncc(-c3ccc4c(Nc5cnccn5)ccnc4c3)cn2)CC1 [3a],none,0,0,0,0,none,no bioactivity,none,none
230 µL/min/1e6 cells,3.5,,,220 µL/min/mg,,COC(=O)C1CCCN1c1ncc(-c2ccc3c(Nc4cnccn4)ccnc3c2)cn1 (stereo not drawn) [3d],none,0,0,3,4,,"bioactivity after 24 h, progressing to the severest response by 48 h",none,
> 300 µL/min/1e6 cells,4.1,,,> 300 µL/min/mg,,CN(CCNc1ncc(-c2ccc3c(Nc4cnccn4)ccnc3c2)cn1)C(=O)OC(C)(C)C [3e],none,0,0,0,4,none,maximal phenotypic response after 48 h,none,
45 µL/min/1e6 cells,3.5,,,> 300 µL/min/mg,,CCN1CCN(c2ncc(-c3ccc4c(Nc5cnccn5)ccnc4c3)cn2)CC1 [4b],none,0,1,1,2,,activity after 5 h,,"S, on sides"
54 µL/min/1e6 cells,2.6,,,,,CN1CCCN(c2ncc(-c3ccc4c(Nc5cnccn5)ccnc4c3)cn2)CC1 [4d],none,0,0,0,0,none,complete loss in activity,none,none
